Experiments:
Histamine H3 receptor [1] = biological target: Histamine H3 receptor (Rattus norvegicus, UniProt Q9QYN8); test: Displacement of [3H]N-alpha-methylhistamine from rat cloned histamine H3 receptor expressed in CHO cells; type: cell-based
Histamine H3 receptor [2] = biological target: T1, Histamine H3 receptor (Homo sapiens, UniProt Q9Y5N1); test: Displacement of [3H]-N-alpha-methylhistamine from human cloned histamine H3 receptor expressed in CHO cells; type: cell-based
Cytochrome P450 1A2 = biological target: T2, Cytochrome P450 1A2 (Homo sapiens, UniProt P05177); test: Inhibition of CYP1A2; type: ADME
T2 sequence (P05177 whole entry): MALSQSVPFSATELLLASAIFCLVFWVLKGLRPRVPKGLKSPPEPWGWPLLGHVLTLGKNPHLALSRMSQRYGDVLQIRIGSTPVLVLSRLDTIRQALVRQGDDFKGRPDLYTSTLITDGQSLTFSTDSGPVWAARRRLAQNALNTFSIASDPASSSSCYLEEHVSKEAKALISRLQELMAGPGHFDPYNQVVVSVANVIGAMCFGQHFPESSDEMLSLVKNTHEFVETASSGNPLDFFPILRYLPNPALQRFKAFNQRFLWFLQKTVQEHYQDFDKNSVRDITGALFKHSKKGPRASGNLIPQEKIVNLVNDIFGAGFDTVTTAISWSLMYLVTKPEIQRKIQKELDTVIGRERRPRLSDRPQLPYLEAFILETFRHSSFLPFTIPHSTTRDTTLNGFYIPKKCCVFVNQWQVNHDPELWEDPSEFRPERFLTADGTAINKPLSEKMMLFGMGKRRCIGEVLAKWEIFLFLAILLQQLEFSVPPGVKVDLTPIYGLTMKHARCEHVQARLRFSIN

[3] = Half life in rat at 1 mg/kg, iv; type: ADME, organism-based; parameters: dose 1 mg/kg, route intravenous; conditions: in vivo
[4] = Half life in dog liver microsomes; type: ADME, Canis lupus familiaris, Microsome
[5] = Aqueous solubility of the compound at pH 7.4; type: physicochemical; conditions: buffer
[6] = AUC (infinity) in rat at 5 mg/kg, po; type: ADME, organism-based; parameters: time infinity, dose 5 mg/kg, route oral; conditions: plasma
[7] = Half life in mouse liver microsomes; type: ADME, Microsome
[8] = Half life in rat liver microsomes; type: ADME, Microsome
Cytochrome P450 3A4 = Cytochrome P450 3A4 (Homo sapiens, UniProt P08684); test: Inhibition of CYP3A4; type: ADME
[9] = Ratio of drug level in brain to plasma of rat at 10 mg/kg, ip after 1 hr; type: ADME, organism-based; parameters: dose 10 mg/kg, route intraperitoneal; conditions: read-out: BPR
[10] = Volume of distribution in rat at 1 mg/kg, iv; type: ADME, organism-based; parameters: dose 1 mg/kg, route intravenous; conditions: in vivo
Cytochrome P450 2C9 = Cytochrome P450 2C9 (Homo sapiens, UniProt P11712); test: Inhibition of CYP2C9; type: ADME
[11] = Cmax in rat at 5 mg/kg, po; type: ADME, organism-based; parameters: dose 5 mg/kg, route oral; conditions: in vivo
[12] = Clearance in rat at 1 mg/kg, iv; type: ADME, organism-based; parameters: dose 1 mg/kg, route intravenous; conditions: in vivo
Cytochrome P450 2C19 = Cytochrome P450 2C19 (Homo sapiens, UniProt P33261); test: Inhibition of CYP2C19; type: ADME
[13] = Half life in human liver microsomes; type: ADME, Microsome
[14] = Oral bioavailability in rat at 5 mg/kg; type: ADME, organism-based; conditions: in vivo
Cytochrome P450 2D6 = Cytochrome P450 2D6 (Homo sapiens, UniProt P10635); test: Inhibition of CYP2D6; type: ADME
[15] = biological target: Histamine H4 receptor (Homo sapiens) (UniProt Q9H3N8); test: Inhibition of human H4 receptor at 10 uM
[16] = biological target: Histamine H2 receptor (Homo sapiens) (UniProt P25021); test: Inhibition of human H2 receptor at 10 uM
[17] = biological target: Histamine H1 receptor (Homo sapiens) (UniProt P35367); test: Inhibition of human H1 receptor at 10 uM
Histamine H3 receptor [18] = biological target: T1, Histamine H3 receptor; conditions: CHO, 10 uM
[19] = biological target: Histamine H3 receptor (Rattus norvegicus) (UniProt Q9QYN8); conditions: CHO, 10 uM
Histamine H3 receptor (Rattus norvegicus), sequence (Q9QYN8 whole entry): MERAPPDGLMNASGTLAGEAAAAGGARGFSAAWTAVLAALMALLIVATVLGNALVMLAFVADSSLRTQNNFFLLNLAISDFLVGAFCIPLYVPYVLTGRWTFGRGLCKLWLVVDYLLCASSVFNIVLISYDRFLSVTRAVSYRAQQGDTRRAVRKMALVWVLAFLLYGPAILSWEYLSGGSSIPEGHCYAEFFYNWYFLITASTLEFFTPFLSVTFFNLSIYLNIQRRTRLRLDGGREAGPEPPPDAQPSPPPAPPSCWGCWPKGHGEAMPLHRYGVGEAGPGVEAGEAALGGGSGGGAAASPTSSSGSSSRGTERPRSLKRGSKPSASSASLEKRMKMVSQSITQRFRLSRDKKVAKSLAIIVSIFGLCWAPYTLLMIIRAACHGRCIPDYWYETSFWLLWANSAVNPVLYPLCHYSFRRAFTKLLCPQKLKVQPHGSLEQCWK

Cytochrome P450 3A4, sequence (P08684 whole entry): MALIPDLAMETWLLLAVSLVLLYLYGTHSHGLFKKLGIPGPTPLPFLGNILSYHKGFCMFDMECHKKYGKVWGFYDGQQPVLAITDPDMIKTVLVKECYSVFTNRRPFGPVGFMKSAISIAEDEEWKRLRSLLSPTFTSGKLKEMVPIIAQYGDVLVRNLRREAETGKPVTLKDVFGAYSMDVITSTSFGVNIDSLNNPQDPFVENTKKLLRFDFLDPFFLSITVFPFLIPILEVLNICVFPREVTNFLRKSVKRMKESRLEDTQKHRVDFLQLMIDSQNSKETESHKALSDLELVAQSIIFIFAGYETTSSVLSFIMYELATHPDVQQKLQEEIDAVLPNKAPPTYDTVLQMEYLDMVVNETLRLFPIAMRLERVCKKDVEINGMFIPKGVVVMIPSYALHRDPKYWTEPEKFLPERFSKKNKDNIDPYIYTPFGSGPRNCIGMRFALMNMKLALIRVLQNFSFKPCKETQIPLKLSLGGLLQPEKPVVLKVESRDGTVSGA
Histamine H3 receptor (Rattus norvegicus, UniProt Q9QYN8), sequence (Q9QYN8 whole entry): as the sequence (Q9QYN8 whole entry) above
Cytochrome P450 2D6, sequence (P10635 whole entry): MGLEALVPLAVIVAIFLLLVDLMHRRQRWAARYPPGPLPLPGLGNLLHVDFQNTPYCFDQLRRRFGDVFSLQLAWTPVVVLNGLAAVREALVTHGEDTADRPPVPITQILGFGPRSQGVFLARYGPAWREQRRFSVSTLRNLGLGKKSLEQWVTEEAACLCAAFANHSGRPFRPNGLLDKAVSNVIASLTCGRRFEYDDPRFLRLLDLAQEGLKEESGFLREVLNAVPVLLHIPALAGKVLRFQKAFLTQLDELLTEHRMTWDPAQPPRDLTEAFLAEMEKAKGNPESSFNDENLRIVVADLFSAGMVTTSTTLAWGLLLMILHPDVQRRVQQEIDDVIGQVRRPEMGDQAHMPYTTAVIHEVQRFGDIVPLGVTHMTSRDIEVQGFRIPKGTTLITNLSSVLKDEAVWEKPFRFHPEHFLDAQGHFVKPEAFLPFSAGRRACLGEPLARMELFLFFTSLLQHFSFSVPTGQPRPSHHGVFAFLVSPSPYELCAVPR
Cytochrome P450 2C19, sequence (P33261 whole entry): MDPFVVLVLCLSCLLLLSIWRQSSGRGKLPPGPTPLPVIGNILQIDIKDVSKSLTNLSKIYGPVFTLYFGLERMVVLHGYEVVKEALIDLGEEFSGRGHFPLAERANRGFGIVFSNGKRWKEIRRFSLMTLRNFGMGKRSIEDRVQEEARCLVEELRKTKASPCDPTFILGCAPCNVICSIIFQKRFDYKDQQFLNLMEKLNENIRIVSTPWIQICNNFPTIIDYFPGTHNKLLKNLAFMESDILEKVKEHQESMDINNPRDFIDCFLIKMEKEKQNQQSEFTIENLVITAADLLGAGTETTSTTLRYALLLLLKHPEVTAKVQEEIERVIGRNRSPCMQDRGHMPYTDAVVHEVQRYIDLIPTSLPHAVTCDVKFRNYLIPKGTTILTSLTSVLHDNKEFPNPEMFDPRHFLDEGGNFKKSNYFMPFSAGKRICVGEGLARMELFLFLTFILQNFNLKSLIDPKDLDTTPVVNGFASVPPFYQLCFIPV
T1 sequence (Q9Y5N1 whole entry): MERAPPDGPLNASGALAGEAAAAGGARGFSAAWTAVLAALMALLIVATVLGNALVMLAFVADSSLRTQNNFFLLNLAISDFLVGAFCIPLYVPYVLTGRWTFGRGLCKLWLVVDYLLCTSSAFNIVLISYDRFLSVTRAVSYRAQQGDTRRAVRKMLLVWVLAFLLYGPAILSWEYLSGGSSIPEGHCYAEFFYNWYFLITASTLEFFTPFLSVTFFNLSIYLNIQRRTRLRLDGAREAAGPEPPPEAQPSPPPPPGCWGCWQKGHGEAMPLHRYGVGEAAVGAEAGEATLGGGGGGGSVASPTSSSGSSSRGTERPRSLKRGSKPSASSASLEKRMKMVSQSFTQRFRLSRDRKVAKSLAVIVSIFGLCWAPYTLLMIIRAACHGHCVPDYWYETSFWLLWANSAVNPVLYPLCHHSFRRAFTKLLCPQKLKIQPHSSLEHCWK
Cytochrome P450 2C9, sequence (P11712 whole entry): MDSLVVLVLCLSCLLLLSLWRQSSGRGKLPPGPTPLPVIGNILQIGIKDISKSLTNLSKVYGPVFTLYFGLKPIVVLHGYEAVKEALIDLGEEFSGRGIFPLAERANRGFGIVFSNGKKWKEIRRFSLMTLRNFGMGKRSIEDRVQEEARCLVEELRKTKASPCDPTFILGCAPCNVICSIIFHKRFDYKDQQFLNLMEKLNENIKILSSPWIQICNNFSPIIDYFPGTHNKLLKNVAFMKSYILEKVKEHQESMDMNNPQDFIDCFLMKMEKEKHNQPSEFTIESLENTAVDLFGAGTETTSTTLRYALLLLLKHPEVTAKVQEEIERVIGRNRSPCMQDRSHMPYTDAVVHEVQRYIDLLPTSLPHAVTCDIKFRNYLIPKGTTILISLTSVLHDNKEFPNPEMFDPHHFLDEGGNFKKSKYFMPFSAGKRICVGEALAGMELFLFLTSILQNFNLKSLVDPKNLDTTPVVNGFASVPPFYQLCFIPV
Histamine H1 receptor (Homo sapiens), sequence (P35367 whole entry): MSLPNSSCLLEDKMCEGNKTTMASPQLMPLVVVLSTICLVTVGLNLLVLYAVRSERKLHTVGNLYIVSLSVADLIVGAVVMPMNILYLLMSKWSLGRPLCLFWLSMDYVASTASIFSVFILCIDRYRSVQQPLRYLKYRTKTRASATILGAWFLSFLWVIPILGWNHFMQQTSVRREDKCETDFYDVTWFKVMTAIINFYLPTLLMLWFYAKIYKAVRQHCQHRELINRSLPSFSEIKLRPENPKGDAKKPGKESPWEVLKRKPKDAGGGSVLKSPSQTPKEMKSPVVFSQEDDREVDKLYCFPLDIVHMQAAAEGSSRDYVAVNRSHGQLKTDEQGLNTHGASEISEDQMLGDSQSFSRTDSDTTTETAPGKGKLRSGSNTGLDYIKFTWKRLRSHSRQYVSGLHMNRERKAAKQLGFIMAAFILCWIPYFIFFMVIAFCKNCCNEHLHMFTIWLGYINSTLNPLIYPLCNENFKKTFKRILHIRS
Histamine H2 receptor (Homo sapiens), sequence (P25021 whole entry): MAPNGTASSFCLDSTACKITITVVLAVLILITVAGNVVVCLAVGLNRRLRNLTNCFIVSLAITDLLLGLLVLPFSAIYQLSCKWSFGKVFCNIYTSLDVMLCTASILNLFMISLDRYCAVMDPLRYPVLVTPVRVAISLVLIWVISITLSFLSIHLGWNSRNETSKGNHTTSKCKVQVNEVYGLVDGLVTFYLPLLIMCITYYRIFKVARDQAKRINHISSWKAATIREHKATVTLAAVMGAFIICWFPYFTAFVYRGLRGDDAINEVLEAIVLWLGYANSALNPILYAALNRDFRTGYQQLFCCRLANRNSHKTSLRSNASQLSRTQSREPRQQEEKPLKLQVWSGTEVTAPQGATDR
Histamine H4 receptor (Homo sapiens), sequence (Q9H3N8 whole entry): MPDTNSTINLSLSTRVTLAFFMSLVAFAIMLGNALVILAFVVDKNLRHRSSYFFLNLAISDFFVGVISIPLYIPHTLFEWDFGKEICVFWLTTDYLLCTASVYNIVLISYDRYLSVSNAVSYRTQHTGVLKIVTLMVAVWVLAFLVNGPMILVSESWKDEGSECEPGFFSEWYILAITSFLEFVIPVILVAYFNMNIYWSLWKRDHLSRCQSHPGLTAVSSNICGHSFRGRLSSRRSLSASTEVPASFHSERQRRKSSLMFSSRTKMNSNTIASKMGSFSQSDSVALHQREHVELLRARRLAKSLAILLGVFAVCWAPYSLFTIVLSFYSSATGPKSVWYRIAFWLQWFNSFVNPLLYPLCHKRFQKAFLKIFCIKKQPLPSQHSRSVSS

Structure (SMILES) | Ki (Histamine H3 receptor [1]) [nM] | Ki (Histamine H3 receptor [2]) [nM] | IC50 (Cytochrome P450 1A2) [nM] | half-life [3] [min] | half-life [4] [min] | solubility [5] [µg/mL] | AUC(0-inf) [6] [ng·h/mL] | half-life [7] [min] | half-life [8] [min] | IC50 (Cytochrome P450 3A4) [nM] | Kp at 1 h [9] | Vd [10] [L/kg] | IC50 (Cytochrome P450 2C9) [nM] | Cmax [11] [ng/mL] | clearance [12] [mL/min/kg] | IC50 (Cytochrome P450 2C19) [nM] | half-life [13] [min] | bioavailability [14] [%] | IC50 (Cytochrome P450 2D6) [nM] | further results
CC(C)S(=O)(=O)N1CCC(Oc2ccc3c(c2)CCC2(CCN(C4CCC4)CC2)O3)CC1 | 27 | 7 |  |  |  |  |  |  |  |  |  |  |  |  |  |  |  |  |  | 
O=C(C1CC1)N1CCC(Oc2ccc3c(c2)CCC2(CCN(C4CCC4)CC2)O3)CC1 | 16 | 6 | > 30000 | 96 | > 40 | > 100 | 359 | > 40 | > 40 | > 30000 | 2.3 | 2.7 | > 30000 | 71 | 20 | > 30000 | > 40 | 8 | > 30000 | 
CS(=O)(=O)N1CCC(Oc2ccc3c(c2)CCC2(CCN(C4CCC4)CC2)O3)CC1 | 17 | 7 | > 30000 | 36 | > 40 | > 100 | 392 | > 40 | > 40 | > 30000 | 1.5 | 0.5 | > 30000 | 83 | 9 | > 30000 | > 40 | 4 | 18000 | inhibition [15]: < 20%; inhibition [16]: < 20%; inhibition [17]: < 20%
CC(=O)N1CCC(Oc2ccc3c(c2)CCC2(CCN(C4CCC4)CC2)O3)CC1 | 10 | 4 | > 30000 |  | > 40 |  |  | > 40 | > 40 | > 30000 |  |  | > 30000 |  |  | > 30000 | > 40 |  | > 30000 | 
c1cc2c(cc1OC1CCNCC1)CCC1(CCN(C3CCC3)CC1)O2 | 6 | 3 |  |  |  |  |  |  |  |  |  |  |  |  |  |  |  |  |  | 
CC(C)(C)OC(=O)N1CCC(Oc2ccc3c(c2)CCC2(CCN(C4CCC4)CC2)O3)CC1 | 40 | 47 |  |  |  |  |  |  |  |  |  |  |  |  |  |  |  |  |  | 
Oc1ccc2c(c1)CCC1(CCN(C3CCC3)CC1)O2 | > 3000 | > 3000 |  |  |  |  |  |  |  |  |  |  |  |  |  |  |  |  |  | inhibition (Histamine H3 receptor [18]): 50%; inhibition [19]: 50%
O=S(=O)(C1CC1)N1CCC(Oc2ccc3c(c2)CCC2(CCN(C4CCC4)CC2)O3)CC1 | 18 | 9 | > 30000 | 108 | > 40 | > 100 | 435 | > 40 | > 40 | > 30000 | 2 | 1.6 | > 30000 | 76 | 10 | > 30000 | > 40 | 5 | > 30000 | 
CC(C)C(=O)N1CCC(Oc2ccc3c(c2)CCC2(CCN(C4CCC4)CC2)O3)CC1 | 6 | 2 | > 30000 | 66 | > 40 | > 100 | 410 | > 40 | > 40 | > 30000 | 2.3 | 1.9 | > 30000 | 80 | 18 | > 30000 | > 40 | 9 | > 30000 | 
CCS(=O)(=O)N1CCC(Oc2ccc3c(c2)CCC2(CCN(C4CCC4)CC2)O3)CC1 | 24 | 7 |  |  |  |  |  |  |  |  |  |  |  |  |  |  |  |  |  | 
